Patent publication US20240174618A1, “SUBSTITUTED (2-HETEROARYLOXYPHENYL)SULFONATES, SALTS THEREOF AND THEIR USE AS HERBICIDAL AGENTS” (Bayer Aktiengesellschaft, priority 2021, published 2024)

What was measured:
Type in all cases: in vivo
[1] = system: Abutilon theophrasti (ABUTH); assay: B. Herbicidal post-emergence efficacy, ABUTH; settings: rated visually after about 3 weeks
How it was run: (§1)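 Weeds grown in sandy loam in greenhouse and sprayed at the one-leaf stage, 2–3 weeks after sowing, with WP or EC formulations plus 0.5% additive at 600 L/ha water. Injury rated visually versus untreated controls after about 3 weeks (100% = dead, 0% = like control); rates up to 1280 g/ha.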

Setaria viridis (SETVI) = assay: B. Herbicidal post-emergence efficacy, SETVI
How it was run: as §1

Stellaria media (STEME) = assay: B. Herbicidal post-emergence efficacy, STEME
How it was run: as §1

[2] = system: Echinochloa crus-galli (ECHCG); assay: C. Herbicidal pre-emergence efficacy, ECHCG; settings: scored after about 3 weeks
How it was run: (§2)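 Pre-emergence test: formulated compounds sprayed as aqueous suspension or emulsion with 0.5% additive at 600 l/ha onto soil covering sown seeds, at rates corresponding to 320 g/ha or less. After about 3 weeks in greenhouse, efficacy scored visually as percent versus untreated controls (100% = plants dead).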

[3] = system: Polygonum convolvulus (POLCO); assay: C. Herbicidal pre-emergence efficacy, POLCO; settings: scored after about 3 weeks
Excerpt: Seeds of monocotyledonous and dicotyledonous weed plants and crop plants were placed in plastic or organic planting pots and covered with soil. The compounds of the invention, formulated in the form of wettable powders (WP) or as emulsion concentrates (EC), were then applied to the surface of the covering soil as aqueous suspension or emulsion with addition of 0.5% additive at a water application rate equivalent to 600 l/ha (converted). After the treatment, the pots were placed in a greenhouse and kept under good growth conditions for the test plants. After about 3 weeks, the efficacy of the preparations was scored visually in comparison with untreated controls as percentages. For example, • 100% efficacy=plants have died, • 0% efficacy=like untreated control plants.
Tables C1a to C14b below show the effects of selected compounds of the general formula (I) according to table 1 on various harmful plants at an application rate corresponding to 320 g/ha or less, which were obtained by the experimental procedure mentioned above.

[4] = system: Triticum aestivum (TRZAS); assay: D. Pre-emergence effect on useful plants, TRZAS; settings: useful plant
How it was run: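 Seeds sown in pots and covered with soil; WP or EC formulations sprayed on the soil surface as aqueous suspension/emulsion with 0.5% additive at 600 l/ha water. Plants grown in greenhouse; crop damage scored visually after about 3 weeks as % versus untreated controls (100% = dead, 0% = like control).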

[5] = system: Pharbitis purpurea (PHBPU); assay: E. Herbicidal post-emergence efficacy, PHBPU
How it was run: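 Compounds applied at 320 g/ha or less as a foliar spray (600 l/ha, 0.5% additive) to one-leaf-stage greenhouse plants grown in sandy loam. Damage is visually scored in percent relative to untreated plants after about 3 weeks.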

[6] = system: Digitaria sanguinalis (DIGSA); assay: B. Herbicidal post-emergence efficacy, DIGSA; settings: rated visually after about 3 weeks
How it was run: as §1

Kochia scoparia (KCHSC) = assay: C. Herbicidal pre-emergence efficacy, KCHSC
How it was run: as §2

Pre-emergence efficacy against TRZAS in % ([4]; application rate 80 g/ha)	Pre-emergence efficacy against TRZAS in % ([4]; application rate 320 g/ha)	SMILES	Post-emergence efficacy against ABUTH in % ([1]; 80 g/ha)	Post-emergence efficacy against ABUTH in % ([1]; 320 g/ha)	Post-emergence efficacy against ABUTH in % ([1]; 1280 g/ha)	Post-emergence efficacy against SETVI (Setaria viridis (SETVI); 320 g/ha)	Post-emergence efficacy against SETVI (Setaria viridis (SETVI); 1280 g/ha)	Post-emergence efficacy against STEME (Stellaria media (STEME); 80 g/ha)	Post-emergence efficacy against STEME (Stellaria media (STEME); 320 g/ha)	Post-emergence efficacy against STEME (Stellaria media (STEME); 1280 g/ha)	Pre-emergence efficacy against ECHCG ([2]; 80 g/ha)	Pre-emergence efficacy against ECHCG ([2]; 320 g/ha)	Pre-emergence efficacy against POLCO ([3]; 80 g/ha)	Pre-emergence efficacy against POLCO ([3]; 320 g/ha)	Post-emergence efficacy against PHBPU in % ([5]; application rate 320 g/ha)	Post-emergence efficacy against PHBPU in % ([5]; application rate 80 g/ha)	Post-emergence efficacy against DIGSA in % ([6]; 1280 g/ha)	Post-emergence efficacy against DIGSA in % ([6]; 320 g/ha)	Pre-emergence efficacy against KCHSC in % (Kochia scoparia (KCHSC); application rate 80 g/ha)	Pre-emergence efficacy against KCHSC in % (Kochia scoparia (KCHSC); application rate 320 g/ha)
0%		O=S(=O)(CC1CC1)Oc1ccccc1Oc1ncc(Cl)cn1 [Example I-23]		90%	100%		100%	90%	100%	100%	100%	100%	100%	100%	100%		100%	90%		
0%	0%	CCCCCS(=O)(=O)Oc1ccccc1Oc1ncc(Cl)cn1 [Example I-24]		90%	90%		90%	90%	90%	100%		100%		80%	80%		90%	90%		
0%	0%	CC(C)CCS(=O)(=O)Oc1ccccc1Oc1ncc(Cl)cn1 [Example I-25]		90%	100%	90%	90%	90%	100%	100%	100%	100%	80%	90%	90%	80%	100%	90%		
0%		Cc1cccc(Oc2ncc(F)cn2)c1OS(=O)(=O)CCC(F)(F)F [Example I-45]		100%	100%			100%	100%	100%	100%	100%	100%	100%					90%	100%
0%		O=S(=O)(CCC(F)=C(F)F)Oc1c(F)cccc1Oc1ncc(Cl)cn1 [Example I-70]									90%	100%	100%	100%	100%	80%			100%	100%

Second part, the compound before the results:

SMILES	Pre-emergence efficacy against TRZAS in % ([4]; application rate 80 g/ha)	Pre-emergence efficacy against TRZAS in % ([4]; application rate 320 g/ha)	Post-emergence efficacy against ABUTH in % ([1]; 80 g/ha)	Post-emergence efficacy against ABUTH in % ([1]; 320 g/ha)	Post-emergence efficacy against ABUTH in % ([1]; 1280 g/ha)	Post-emergence efficacy against SETVI (Setaria viridis (SETVI); 320 g/ha)	Post-emergence efficacy against SETVI (Setaria viridis (SETVI); 1280 g/ha)	Post-emergence efficacy against STEME (Stellaria media (STEME); 80 g/ha)	Post-emergence efficacy against STEME (Stellaria media (STEME); 320 g/ha)	Post-emergence efficacy against STEME (Stellaria media (STEME); 1280 g/ha)	Pre-emergence efficacy against ECHCG ([2]; 80 g/ha)	Pre-emergence efficacy against ECHCG ([2]; 320 g/ha)	Pre-emergence efficacy against POLCO ([3]; 80 g/ha)	Pre-emergence efficacy against POLCO ([3]; 320 g/ha)	Post-emergence efficacy against PHBPU in % ([5]; application rate 320 g/ha)	Post-emergence efficacy against PHBPU in % ([5]; application rate 80 g/ha)	Post-emergence efficacy against DIGSA in % ([6]; 1280 g/ha)	Post-emergence efficacy against DIGSA in % ([6]; 320 g/ha)	Pre-emergence efficacy against KCHSC in % (Kochia scoparia (KCHSC); application rate 80 g/ha)	Pre-emergence efficacy against KCHSC in % (Kochia scoparia (KCHSC); application rate 320 g/ha)
O=S(=O)(CCCCl)Oc1ccccc1Oc1ncc(Cl)cn1 [Example I-2]	0%		100%	100%	100%	100%	100%	90%	100%	100%	90%	100%	90%	100%	100%					
CCCS(=O)(=O)Oc1ccccc1Oc1ncc(Cl)cn1 [Example I-3]	10%			90%	100%		90%		90%	100%	90%	100%		100%	90%					
O=S(=O)(CCC(F)(F)F)Oc1ccccc1Oc1ncc(Cl)cn1 [Example I-8]	20%				90%	90%	90%		90%	90%	100%	100%	90%	90%	100%					
O=S(=O)(CCl)Oc1ccccc1Oc1ncc(Cl)cn1 [Example I-9]	20%			90%	90%		90%			90%		90%		90%						
Cc1cccc(OS(=O)(=O)CCCCl)c1Oc1ncc(Cl)cn1 [Example I-12]	0%						90%	90%	90%	100%	90%	90%			90%	90%				
O=S(=O)(CCCCl)Oc1cccc(F)c1Oc1ncc(Cl)cn1 [Example I-13]	10%	10%			90%				90%	100%		80%					90%			
O=S(=O)(CCCC(F)(F)F)Oc1c(F)cccc1Oc1ncc(Cl)cn1 [Example I-49]			90%	90%	90%	90%	90%	90%	90%	90%	100%	100%	100%	100%	100%	100%	90%	90%	100%	100%
O=S(=O)(CC1CC(F)(F)C1)Oc1c(F)cccc1Oc1ncc(Cl)cn1 [Example I-53]			90%	90%	90%	90%	90%	90%	90%	90%	100%	100%	100%	100%	100%	100%	90%	90%	100%	100%
O=S(=O)(CCCC(F)F)Oc1c(F)cccc1Oc1ncc(Cl)cn1 [Example I-56]			90%	90%	90%	90%	90%	90%	90%	90%	100%	100%	100%	100%	100%	100%	90%	90%	100%	100%
